According to patent US7220732B2, “Compounds useful as photodynamic therapeutic agents” (priority 2002, dated 2007):

How the values were obtained:
[1] = test system: HeLa cells; assay: Fluorescence microscopy cellular localisation (DAPI dual staining); format: cell-based; settings: 10^−5 M, DAPI nuclear stain
Experimental: Cells were seeded at a density of 30,000 cells/well in chamber slides and allowed to adhere for 24 hr. 2a (10^−5 M) was then added to each chamber and incubated at 37° C. in the dark for either 1 hr or 3 hrs at 37° C.—a one hour incubation was used for FIGS. 4 and 5. The medium was removed and the cells were washed 4 times with drug-free (2a free) medium. The cells were then fixed with 3.7% (v/v) formaldehyde for 15 min at 37° C. The fixative solution was removed and the cells were washed twice with sterile PBS. DAPI (4′,6-diamidino-2-phenylindole) nuclear stain (1/1000) was then incubated with the cells for 10 min at 37° C., following which the cells were washed twice with PBS. Cells were then mounted in Vectashield (Trade Mark) mounting medium.
The cells were viewed using an Axio Zeiss fluorescent microscope. The cells were examined at the different time points using two different filters. The rhodamine filter, which is specific for the wavelength region in which 2a fluoresces, was used to visualise 2a. The DAPI filter was employed to examine the nuclei of the cells.
Cancer cellular uptake of a photosensitiser is a prerequisite for it to act as a PDT agent. Delivery of our proposed PDT agents required formulation of the sensitisers in order to impart water solubility. […]

[2] = Fluorescence emission and fluorescence quantum yield; format: physicochemical
Description: The absorption bands of each photosensitiser are relatively insensitive to solvent changes with solutions in water/Cremophor resulting in a further bathochromic shift of ˜10 nm (Table 1). Excitation of chloroform solutions of the 2a and 4a at 635 nm gave a fluorescence band at 672 and 673 nm respectively (FIG. 2, Table 2). […] The reduction in fluorescence quantum yield in the series would imply more efficient population of the triplet excited state which would benefit singlet oxygen production. The ability of 2 and 4 to produce singlet oxygen would be a prerequisite to them being potential PDT agents.

F[B-]1(F)n2c(-c3ccccc3)cc(-c3ccccc3)c2N=C2C(c3ccccc3)=CC(c3ccccc3)=[N+]21 [Compound 2a]
cellular localisation [1]: primarily at the endoplasmic reticulum and not in the nucleus
λ em (fluorescence band) ([2]; CHCl3, room temperature, excitation at 635 nm): 672 nm
λ em (fluorescence band) ([2]; Water/Cremophor (100:1), room temperature): 683 nm
Φf (fluorescence quantum yield) ([2]; relative to magnesium tetra-tert-butylphthalocyanine in CHCl3, room temperature): 0.34
